# Results taken from ChEMBL document CHEMBL1201862, “PubChem BioAssay data set” (2004).
# pIC50: −log10 of the molar value. Active and inactive are the calls of the source.
# Columns and labels:
# [1] = target: T1, Coagulation factor XII (Homo sapiens, UniProt P00748); type: functional;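 also: activated factor XIIa alpha cleaving a fluorogenic AMC peptide substrate; inhibitor potency from loss of enzyme activity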
# T1 sequence (P00748 whole entry): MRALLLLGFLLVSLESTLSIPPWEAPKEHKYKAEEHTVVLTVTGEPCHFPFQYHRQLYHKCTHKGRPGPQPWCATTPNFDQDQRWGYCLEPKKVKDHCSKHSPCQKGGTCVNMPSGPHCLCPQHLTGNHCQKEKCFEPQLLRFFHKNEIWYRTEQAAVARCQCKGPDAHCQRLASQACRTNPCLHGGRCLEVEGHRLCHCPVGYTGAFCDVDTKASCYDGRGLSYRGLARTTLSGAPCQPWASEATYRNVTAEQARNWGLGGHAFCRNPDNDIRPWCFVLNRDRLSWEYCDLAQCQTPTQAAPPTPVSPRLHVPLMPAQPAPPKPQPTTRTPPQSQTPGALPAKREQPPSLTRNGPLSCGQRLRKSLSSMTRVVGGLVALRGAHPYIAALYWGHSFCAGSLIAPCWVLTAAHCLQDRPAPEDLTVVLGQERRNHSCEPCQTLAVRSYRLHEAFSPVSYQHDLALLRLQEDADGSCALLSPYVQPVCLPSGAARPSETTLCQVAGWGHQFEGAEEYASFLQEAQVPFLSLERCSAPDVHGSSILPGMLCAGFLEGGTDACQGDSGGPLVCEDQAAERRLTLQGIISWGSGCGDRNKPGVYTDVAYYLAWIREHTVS
# [2] = target: T2, Tyrosine-protein phosphatase non-receptor type 22 (Homo sapiens, UniProt Q9Y2R2); type: functional
# T2 sequence (Q9Y2R2 whole entry): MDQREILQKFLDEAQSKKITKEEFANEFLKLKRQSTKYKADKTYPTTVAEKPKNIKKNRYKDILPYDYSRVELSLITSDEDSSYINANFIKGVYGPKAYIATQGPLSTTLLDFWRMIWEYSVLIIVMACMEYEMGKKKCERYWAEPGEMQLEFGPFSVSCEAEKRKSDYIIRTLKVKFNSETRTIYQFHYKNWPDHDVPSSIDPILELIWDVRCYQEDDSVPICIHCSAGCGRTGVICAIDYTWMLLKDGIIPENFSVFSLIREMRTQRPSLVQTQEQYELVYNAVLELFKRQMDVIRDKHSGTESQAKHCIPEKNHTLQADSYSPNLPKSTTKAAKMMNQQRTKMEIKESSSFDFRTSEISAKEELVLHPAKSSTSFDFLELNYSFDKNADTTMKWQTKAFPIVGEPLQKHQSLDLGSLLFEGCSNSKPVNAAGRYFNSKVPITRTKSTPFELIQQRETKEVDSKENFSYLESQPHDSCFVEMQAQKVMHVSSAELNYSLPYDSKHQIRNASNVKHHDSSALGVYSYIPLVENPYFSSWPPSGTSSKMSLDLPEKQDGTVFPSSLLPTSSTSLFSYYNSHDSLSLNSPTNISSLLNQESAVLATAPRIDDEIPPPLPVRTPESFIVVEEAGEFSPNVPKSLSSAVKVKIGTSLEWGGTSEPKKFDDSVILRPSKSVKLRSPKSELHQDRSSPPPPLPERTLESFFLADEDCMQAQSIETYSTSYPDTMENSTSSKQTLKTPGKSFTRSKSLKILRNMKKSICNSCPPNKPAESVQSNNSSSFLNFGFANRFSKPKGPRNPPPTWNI
# [3] = target: T3, Tyrosine-protein phosphatase non-receptor type 7 (Homo sapiens, UniProt P35236); type: functional
# T3 sequence (P35236 whole entry): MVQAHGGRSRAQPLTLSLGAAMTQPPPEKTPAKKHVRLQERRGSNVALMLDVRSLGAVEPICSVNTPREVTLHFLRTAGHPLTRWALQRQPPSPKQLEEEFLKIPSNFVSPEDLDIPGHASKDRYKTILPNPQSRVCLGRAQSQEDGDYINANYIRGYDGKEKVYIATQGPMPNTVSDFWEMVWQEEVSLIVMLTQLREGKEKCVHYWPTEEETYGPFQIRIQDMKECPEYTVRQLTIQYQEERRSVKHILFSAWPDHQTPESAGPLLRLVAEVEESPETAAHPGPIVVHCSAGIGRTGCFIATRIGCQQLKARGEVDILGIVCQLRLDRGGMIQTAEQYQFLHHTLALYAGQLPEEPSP
# [4] = target: T2, Tyrosine-protein phosphatase non-receptor type 22; type: functional; remark: listed apart in the source
# [5] = target: X-box-binding protein 1 (Homo sapiens, UniProt P17861); type: functional, Cricetulus griseus;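 also: confirmatory dose-response counter-screen serving a CHOP assay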
# Chain of X-box-binding protein 1 (P17861 whole entry): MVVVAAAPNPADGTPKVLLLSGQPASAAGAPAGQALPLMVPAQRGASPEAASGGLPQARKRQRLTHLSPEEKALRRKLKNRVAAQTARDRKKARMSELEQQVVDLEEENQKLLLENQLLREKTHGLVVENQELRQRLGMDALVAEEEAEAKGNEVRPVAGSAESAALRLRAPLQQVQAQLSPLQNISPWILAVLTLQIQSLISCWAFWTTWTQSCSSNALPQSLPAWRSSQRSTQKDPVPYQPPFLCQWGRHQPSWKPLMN
# [6] = target: T4, G-protein coupled receptor 55 (Homo sapiens, UniProt Q9Y2T6); assay: inhibition of LPI-stimulated GPR55 beta-arrestin translocation – imaging, U2OS, beta-arrestin-GFP, LPI agonist, primary screen (AID 2013); type: functional;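 also: antagonist potency measured as reduced agonist-driven arrestin aggregation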
# T4 sequence (Q9Y2T6 whole entry): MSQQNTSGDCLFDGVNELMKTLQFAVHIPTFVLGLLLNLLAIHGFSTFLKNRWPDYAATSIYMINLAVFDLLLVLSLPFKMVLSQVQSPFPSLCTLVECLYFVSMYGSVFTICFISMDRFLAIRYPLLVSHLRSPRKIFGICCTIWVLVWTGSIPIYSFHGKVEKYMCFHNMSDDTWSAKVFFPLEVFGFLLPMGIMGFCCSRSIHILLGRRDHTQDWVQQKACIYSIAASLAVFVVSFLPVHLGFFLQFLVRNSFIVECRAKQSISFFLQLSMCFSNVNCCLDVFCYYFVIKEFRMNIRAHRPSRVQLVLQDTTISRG
# [7] = target: Heat shock protein HSP 90-alpha (Homo sapiens, UniProt P07900); type: functional, organism-based
# [8] = protection from phage-mediated lysis, alamar blue read-out – E. coli UTI89, K1F phage, bacterial capsule biogenesis inhibitors (AID 488966); type: functional
# [9] = target: Induced myeloid leukemia cell differentiation protein Mcl-1 (Homo sapiens, UniProt Q07820); type: functional
# Chain of Induced myeloid leukemia cell differentiation protein Mcl-1 (Q07820 whole entry): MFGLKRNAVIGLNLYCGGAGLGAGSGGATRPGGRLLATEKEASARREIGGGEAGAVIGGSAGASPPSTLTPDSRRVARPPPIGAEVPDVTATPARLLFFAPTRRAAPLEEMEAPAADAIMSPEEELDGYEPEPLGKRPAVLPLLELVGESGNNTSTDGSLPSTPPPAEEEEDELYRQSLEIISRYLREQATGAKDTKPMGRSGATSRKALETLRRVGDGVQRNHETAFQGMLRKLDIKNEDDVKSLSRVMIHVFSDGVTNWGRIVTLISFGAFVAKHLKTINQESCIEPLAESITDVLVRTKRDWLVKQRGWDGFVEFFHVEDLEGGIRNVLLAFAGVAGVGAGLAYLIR
# [10] = loss of viability in HepG2 cells – cell-based, CellTiter-Glo, cherry-picked, cytotoxicity control for Shn3 inhibitor project, dose response (AID 624134); type: functional
# [11] = target: Mu-type opioid receptor (Homo sapiens, UniProt P35372); assay: HTS Image-Based Screen for Agonists of the MOR Receptor. [Related pubchem assays (depositor defined):AID1777, AID1785, AID1786, AID2133]; type: functional;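 also: imaging of beta-arrestin GFP recruitment into spots after receptor activation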
# Chain of Mu-type opioid receptor (P35372 whole entry): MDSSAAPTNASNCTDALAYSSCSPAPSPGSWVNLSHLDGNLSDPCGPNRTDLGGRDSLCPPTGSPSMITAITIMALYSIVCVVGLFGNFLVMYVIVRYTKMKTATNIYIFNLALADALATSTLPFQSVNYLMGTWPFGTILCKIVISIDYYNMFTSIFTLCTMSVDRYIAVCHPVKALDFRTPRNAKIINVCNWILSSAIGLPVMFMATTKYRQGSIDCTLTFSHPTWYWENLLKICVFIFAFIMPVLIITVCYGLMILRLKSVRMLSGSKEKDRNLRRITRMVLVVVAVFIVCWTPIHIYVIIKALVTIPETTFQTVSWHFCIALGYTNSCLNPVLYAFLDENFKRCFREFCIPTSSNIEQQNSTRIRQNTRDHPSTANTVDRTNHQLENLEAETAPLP
# [12] = M. tuberculosis H37Rv growth inhibitors, H37Rv strain (AID 1626); type: functional
# [13] = target: T5, Delta-type opioid receptor (Homo sapiens, UniProt P41143); assay: HTS Image-Based Screen for Agonists of the DOR Receptor. [Related pubchem assays (depositor defined):AID1777, AID1786, AID2133]; type: functional
# T5 sequence (P41143 whole entry): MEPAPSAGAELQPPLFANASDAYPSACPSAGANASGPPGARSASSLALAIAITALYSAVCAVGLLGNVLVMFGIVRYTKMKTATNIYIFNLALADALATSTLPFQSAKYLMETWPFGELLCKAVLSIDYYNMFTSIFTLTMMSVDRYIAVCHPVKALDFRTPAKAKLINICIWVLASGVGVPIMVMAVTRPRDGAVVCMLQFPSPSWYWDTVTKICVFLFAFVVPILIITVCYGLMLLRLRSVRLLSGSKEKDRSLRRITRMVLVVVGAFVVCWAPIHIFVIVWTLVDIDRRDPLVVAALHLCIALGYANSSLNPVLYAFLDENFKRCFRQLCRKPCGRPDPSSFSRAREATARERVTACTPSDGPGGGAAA
# [14] = MIN6 cell viability loss – mouse insulinoma, cytotoxicity control, dose response (AID 2122); type: functional;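 also: confirmatory high-throughput counterscreen run to flag cytotoxic compounds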
# [15] = reduction of Shn3 3'UTR-driven luciferase in osteoblasts – cell-based, Clone20 osteoblasts, firefly luciferase, cherry-picked, dose response (AID 624132); type: functional;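 also: firefly luciferase luminescence from reporter carrying the Shn3 3'UTR in osteoblasts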
# [16] = decrease of insulin promoter-GFP reporter – imaging, high-content screening, mouse beta cells (AID 1628); type: functional; conditions: MIN6
# [17] = system: Streptococcus; assay: GAS UMAA2166 growth inhibition – luminescence, BacTiterGlo, counter-screen for streptokinase expression inhibitor project, dose response (AID 1915); type: functional, organism-based;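 also: potency for reduction of bacterial viability or growth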
# [18] = target: Beta-galactosidase (Escherichia coli, UniProt Q8VNN2); type: functional
# Chain of Beta-galactosidase (Q8VNN2 whole entry): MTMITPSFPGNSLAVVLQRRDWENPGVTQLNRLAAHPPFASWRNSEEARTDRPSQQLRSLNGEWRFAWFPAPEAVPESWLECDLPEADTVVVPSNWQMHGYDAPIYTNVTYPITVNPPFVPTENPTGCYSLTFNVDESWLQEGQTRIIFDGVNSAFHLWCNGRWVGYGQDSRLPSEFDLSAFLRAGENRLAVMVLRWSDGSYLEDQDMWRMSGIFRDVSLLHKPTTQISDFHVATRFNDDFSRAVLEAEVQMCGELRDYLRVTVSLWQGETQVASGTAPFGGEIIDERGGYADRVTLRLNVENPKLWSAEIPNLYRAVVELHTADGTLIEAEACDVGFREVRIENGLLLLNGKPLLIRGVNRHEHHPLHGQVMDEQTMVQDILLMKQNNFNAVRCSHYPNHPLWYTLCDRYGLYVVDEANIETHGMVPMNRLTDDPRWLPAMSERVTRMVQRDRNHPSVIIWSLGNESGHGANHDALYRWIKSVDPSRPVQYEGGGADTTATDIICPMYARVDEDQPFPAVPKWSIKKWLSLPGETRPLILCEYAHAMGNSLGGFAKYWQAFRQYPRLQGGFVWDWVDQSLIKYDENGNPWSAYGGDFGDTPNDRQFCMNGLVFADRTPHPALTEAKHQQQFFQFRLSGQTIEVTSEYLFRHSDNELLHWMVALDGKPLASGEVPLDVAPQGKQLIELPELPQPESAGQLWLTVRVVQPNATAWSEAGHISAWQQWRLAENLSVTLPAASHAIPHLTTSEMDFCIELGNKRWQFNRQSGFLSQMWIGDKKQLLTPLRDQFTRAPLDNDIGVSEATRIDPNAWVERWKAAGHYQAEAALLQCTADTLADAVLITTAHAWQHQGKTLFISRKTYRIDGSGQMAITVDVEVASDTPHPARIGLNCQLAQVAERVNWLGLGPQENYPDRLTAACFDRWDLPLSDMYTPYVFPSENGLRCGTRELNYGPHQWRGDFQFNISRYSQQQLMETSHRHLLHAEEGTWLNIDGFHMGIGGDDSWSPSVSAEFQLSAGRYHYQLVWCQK
# [19] = target: T6, Kappa-type opioid receptor (Homo sapiens, UniProt P41145); type: functional
# T6 sequence (P41145 whole entry): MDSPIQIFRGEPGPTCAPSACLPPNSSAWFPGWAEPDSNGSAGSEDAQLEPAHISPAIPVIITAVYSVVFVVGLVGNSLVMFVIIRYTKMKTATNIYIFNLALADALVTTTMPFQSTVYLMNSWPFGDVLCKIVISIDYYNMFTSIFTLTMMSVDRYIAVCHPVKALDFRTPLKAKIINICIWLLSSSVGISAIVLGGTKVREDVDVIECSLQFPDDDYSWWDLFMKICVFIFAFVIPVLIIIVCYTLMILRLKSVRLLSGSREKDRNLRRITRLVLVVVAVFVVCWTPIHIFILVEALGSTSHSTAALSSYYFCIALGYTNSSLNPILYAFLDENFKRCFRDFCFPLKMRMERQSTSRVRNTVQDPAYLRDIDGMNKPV
# [20] = target: T5, Delta-type opioid receptor; assay: HTS Image-Based Screen for Antagonists of the DOR Receptor. [Related pubchem assays (depositor defined):AID1777, AID1785, AID1786, AID2133]; type: functional
# [21] = system: Streptococcus sp. 'group A'; assay: Streptococcus pyogenes SK(-)GAS viability under kanamycin – luminescence, BacTiterGlo, confirmation, counter-screen for streptokinase expression inhibitor project, dose response (AID 1900); type: functional, organism-based
# [22] = system: INS1; assay: INS-1E survival protection against cytokine death – cell-based, luminescence, retest, dose response (AID 449756); type: functional; conditions: Rattus norvegicus;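 also: cell death triggered by IL-1 beta plus TNF-alpha plus IFN-gamma mixture; protective hits raise ATP signal compared with cytokine alone wells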
# [23] = non-specific 3'UTR reporter inhibition in Clone20-Shn3RL – cell-based, Renilla luciferase, cherry-picked, counter-screen for Shn3 inhibitor project, dose response (AID 624133); type: functional
# [24] = target: T6, Kappa-type opioid receptor; type: functional; remark: listed apart in the source
# [25] = target: T7, Small ubiquitin-related modifier 1 (Homo sapiens, UniProt P63165); assay: SUMO1 protein-protein binding blockers, potency – biochemical, FRET, dose response (AID 624383); type: functional; conditions: read-out: IC50_Mean
# T7 sequence (P63165 whole entry): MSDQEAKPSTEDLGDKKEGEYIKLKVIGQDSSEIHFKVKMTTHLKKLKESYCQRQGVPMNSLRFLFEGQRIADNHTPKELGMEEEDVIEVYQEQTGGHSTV
# [26] = target: T7, Small ubiquitin-related modifier 1; assay: SUMO1 protein interaction blockers, potency – biochemical, fluorescence polarization, uHTS hits, dose response (AID 624382); type: functional; conditions: read-out: IC50_Mean
# [27] = target: Eukaryotic translation initiation factor 4H (Homo sapiens, UniProt Q15056); assay: inhibitors of translation initiation factor eIF4H – SAR follow-up (AID 435011); type: functional
# [28] = target: Polyadenylate-binding protein 1 (Homo sapiens, UniProt P11940); assay: PABP inhibition in translation initiation, SAR follow-up (AID 435018); type: functional
# Chain of Polyadenylate-binding protein 1 (P11940 whole entry): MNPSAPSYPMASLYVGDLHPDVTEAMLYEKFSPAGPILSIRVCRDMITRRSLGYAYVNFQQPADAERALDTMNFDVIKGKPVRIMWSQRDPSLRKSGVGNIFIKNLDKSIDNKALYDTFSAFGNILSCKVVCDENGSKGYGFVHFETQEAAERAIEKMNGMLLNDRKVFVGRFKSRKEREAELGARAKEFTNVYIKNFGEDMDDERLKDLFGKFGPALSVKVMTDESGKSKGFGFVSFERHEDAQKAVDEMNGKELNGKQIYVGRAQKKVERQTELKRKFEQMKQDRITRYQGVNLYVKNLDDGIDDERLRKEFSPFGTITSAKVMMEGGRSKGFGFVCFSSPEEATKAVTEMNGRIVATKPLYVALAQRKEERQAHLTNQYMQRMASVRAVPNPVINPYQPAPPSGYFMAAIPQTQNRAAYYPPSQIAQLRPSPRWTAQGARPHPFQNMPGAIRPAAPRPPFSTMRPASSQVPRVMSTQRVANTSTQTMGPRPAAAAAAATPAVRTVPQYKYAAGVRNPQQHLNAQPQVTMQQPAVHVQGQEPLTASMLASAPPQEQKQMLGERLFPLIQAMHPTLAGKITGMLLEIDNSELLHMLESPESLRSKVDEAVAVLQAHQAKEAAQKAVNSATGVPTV
# [29] = DRD fibroblast viability loss – cell-based, non-viral oncogenic, luminescence, dose response (AID 1934); type: functional; conditions: Homo sapiens
# [30] = system: Vero; assay: cells; type: functional, cell-based; conditions: Chlorocebus sabaeus
# [31] = system: BJ; assay: BJ-TERT-LT-ST fibroblast viability loss – cell-based, RAS-independent, luminescence, dose response (AID 1935); type: functional; conditions: Homo sapiens;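 also: BJ fibroblasts immortalized with TERT plus LT and ST oncogenes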
# [32] = system: BJ; assay: BJ-TERT fibroblast viability loss – cell-based, RAS-independent, luminescence, dose response (AID 1933); type: functional; conditions: Homo sapiens
# [33] = target: Neurotensin receptor type 1 (Homo sapiens, UniProt P30989); type: functional;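 also: Image-based confirmatory dose-response assay measuring agonist activity at NTR1; NTR1-expressing U2OS osteosarcoma cells imaged for beta-arrestin GFP spot formation; agonist potency where compounds increase beta-arrestin recruitment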
# Chain of Neurotensin receptor type 1 (P30989 whole entry): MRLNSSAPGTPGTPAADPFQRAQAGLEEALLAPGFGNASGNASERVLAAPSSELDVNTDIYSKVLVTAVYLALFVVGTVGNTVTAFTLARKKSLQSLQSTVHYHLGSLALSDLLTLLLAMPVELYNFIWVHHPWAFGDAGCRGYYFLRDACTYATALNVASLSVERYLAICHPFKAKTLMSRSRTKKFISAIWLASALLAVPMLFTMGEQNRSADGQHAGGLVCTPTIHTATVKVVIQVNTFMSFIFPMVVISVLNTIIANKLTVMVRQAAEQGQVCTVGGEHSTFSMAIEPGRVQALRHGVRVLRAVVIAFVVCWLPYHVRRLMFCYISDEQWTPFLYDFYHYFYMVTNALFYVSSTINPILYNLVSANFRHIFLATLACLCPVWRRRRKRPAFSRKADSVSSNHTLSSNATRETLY
# [34] = system: Vero; assay: cells; type: functional; conditions: Chlorocebus sabaeus
# [35] = system: BJ; assay: cells; type: functional, cell-based; conditions: Homo sapiens
# [36] = target: T8, Hexokinase HKDC1 (Homo sapiens, UniProt Q2TB90); assay: inhibition of HKDC1 glucose phosphorylation – biochemical, W721R variant, dose response (AID 504729); type: functional
# T8 sequence (Q2TB90 whole entry): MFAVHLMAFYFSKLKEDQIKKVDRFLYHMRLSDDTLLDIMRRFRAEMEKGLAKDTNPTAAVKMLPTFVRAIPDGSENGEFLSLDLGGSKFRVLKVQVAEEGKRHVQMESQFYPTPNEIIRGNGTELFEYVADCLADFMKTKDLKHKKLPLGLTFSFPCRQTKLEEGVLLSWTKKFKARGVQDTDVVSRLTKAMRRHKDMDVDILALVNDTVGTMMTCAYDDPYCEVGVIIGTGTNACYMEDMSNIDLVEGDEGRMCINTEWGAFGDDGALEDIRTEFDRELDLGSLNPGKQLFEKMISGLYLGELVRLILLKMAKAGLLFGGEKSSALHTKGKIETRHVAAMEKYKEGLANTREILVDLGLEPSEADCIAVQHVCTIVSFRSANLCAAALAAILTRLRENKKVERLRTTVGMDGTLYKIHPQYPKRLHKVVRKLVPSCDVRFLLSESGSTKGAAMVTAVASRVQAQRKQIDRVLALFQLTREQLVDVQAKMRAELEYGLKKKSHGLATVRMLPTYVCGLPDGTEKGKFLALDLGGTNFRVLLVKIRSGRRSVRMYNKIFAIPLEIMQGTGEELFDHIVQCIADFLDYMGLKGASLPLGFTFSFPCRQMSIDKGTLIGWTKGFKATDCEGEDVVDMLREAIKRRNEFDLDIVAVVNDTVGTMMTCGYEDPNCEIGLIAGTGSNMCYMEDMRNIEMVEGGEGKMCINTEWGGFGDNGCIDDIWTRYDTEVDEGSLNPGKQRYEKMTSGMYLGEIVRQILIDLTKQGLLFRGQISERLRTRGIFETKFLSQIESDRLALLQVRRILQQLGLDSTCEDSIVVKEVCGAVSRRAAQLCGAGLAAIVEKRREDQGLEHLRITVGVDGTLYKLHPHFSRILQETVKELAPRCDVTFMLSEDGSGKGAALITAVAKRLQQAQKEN
# [37] = target: T4, G-protein coupled receptor 55; assay: selective activators of receptor GPR55 – imaging, U2OS cells, beta-arrestin-GFP redistribution, primary screen (AID 1961); type: functional
structure (smiles),measurement,setting,value
CNC(=O)COC(=O)c1cc(-c2ccco2)nc2ccccc12,IC50,[1],> 50 µM (inactive)
CCOC(=O)CNC(=O)Cn1cnc2c(nnn2-c2cccc(Cl)c2)c1=O,IC50,[1],> 50 µM (inactive)
COc1ccc2c(-c3ccccc3)cc(N3CCOCC3)nc2c1,IC50,[2],> 79.4 µM (inactive)
same,IC50,[3],> 79.4 µM (inactive)
same,IC50,[4],> 79.4 µM (inactive)
Cc1ccc(NC(=O)C(=O)NCC2OCCc3ccccc32)cc1 (centres undefined),Absolute IC50 (XBP1),[5],10 µM
CC(C)(C)C(=O)C(Cl)C(=O)Nc1ccccc1 (centres undefined),IC50,[6],0.696 µM (active)
same,AC50,[7],1.05 µM (active)
Cc1ccc(C(=O)Oc2ccc(/C=C3\C(=N)N4N=C(N5CCOCC5)SC4=NC3=O)cc2)cc1,IC50,[8],> 75 µM (active)
CCc1ccc2nc3sc(C(=O)Nc4nnc(CC)s4)c(N)c3cc2c1,IC50,[8],> 150 µM (active)
same,IC50,[9],4.39 µM (not active)
CCc1nnc(NC(=O)c2cccc(C(=O)Nc3nnc(CC)s3)n2)s1,AC50,[10],5.56 µM (active)
same,EC50,[11],> 32 µM (inactive)
same,IC50,[12],100 µM (active)
same,EC50,[13],> 32 µM (inactive)
same,IC50,[14],0.568 µM (active)
same,AC50,[15],1.45 µM (active)
same,IC50,[16],0.666 µM (active)
same,EC50,[17],3.5 µM (active)
same,EC50,[18],> 31.5 µM (inactive)
same,IC50,[19],5 µM (inactive)
same,IC50,[20],> 32 µM (inactive)
same,EC50,[21],0.829 µM (active)
same,AC50,[22],0.678 µM (active)
same,AC50,[23],0.573 µM (active)
same,pIC50,[24],< 4.49
CC(=O)c1ccc2c(c1)C1C(Cl)C(Sc3ccccc3[N+](=O)[O-])CC1C(C(=O)O)N2 (centres undefined),IC50,[2],57.9 µM (active)
same,IC50,[3],58.2 µM (active)
same,IC50,[25],13.2 µM (active)
same,IC50,[4],32 µM (active)
same,IC50,[26],> 66.6 µM (inactive)
O=C(CSc1ccc(-c2ccco2)nn1)N1CCCCCC1,IC50,[27],69.4 µM (active)
same,IC50,[28],> 100 µM (inactive)
CCN(CC)c1ccc(C=C2C(=O)NC(=S)NC2=O)cc1,EC50,[29],10.8 µM (active)
same,IC50,[30],> 25 µM (active)
same,EC50,[31],> 75 µM (inconclusive)
same,EC50,[32],13.5 µM (active)
same,EC50,[33],3.91 µM (active)
same,CC50,[34],13.9 µM (active)
same,EC50,[35],15.9 µM (active)
Nc1c(Br)cc2c3c(cccc13)-c1ccccc1-2,IC50,[36],4.58 µM (active)
COc1ccc([N+](=O)[O-])cc1NC(=O)COC(=O)c1ccc(NC(N)=O)cc1,IC50,[27],> 100 µM (inactive)
same,IC50,[28],> 100 µM (inactive)
COc1ccc(-c2n(CC(=O)OC3CC(C)CCC3C(C)C)c3ccccc3[n+]2C)cc1 (centres undefined),EC50,[37],> 32 µM (inactive)
